The values that follow are results of earlier work, collected in US11318122B2, “Pharmaceutical combination and its use for treating synucleinopathties” (CHASE THERAPEUTICS CORPORATION, priority 2017, dated 2022).

SMILES strings stand for the structures.

In series [1] the test system is extracellular concentrations of norepinephrine and dopamine. As to conditions: large doses, rodents, acute systemic administration.
Series [2] concerns 6-OHDA (6-hydroxydopamine)-induced damage. The note with it: toxin-induced model of PD.
For series [3], the system named is MPTP-induced damage. The note with it: toxin-induced model of PD.
For series [4] the following is noted: 5 mg/day of pramipexole.
Series [5] concerns dopaminergic neurons.
For series [6], the target named is synuclein (Homo sapiens, UniProt P37840).
For series [7], the target named is alpha-synuclein in human neuroblastoma SH5Y cells (Homo sapiens, UniProt P37840).
The target of series [8] is human wild-type alpha-synuclein (Homo sapiens, UniProt P37840). The note with it: by H2O2 plus cytochrome c.
The conditions of series [9]: doses approved for the treatment of motor symptoms of PD; 535 PD patients.

On to `CNCCC(Oc1ccc(C(F)(F)F)cc1)c1ccccc1` (stereo not drawn) [fluoxetine, 1-methylamino-3-phenyl-3-[4-(trifluoromethyl)phenoxy]propane], for which the “extracellular concentrations of norepinephrine and dopamine” value in [1] is on record as “significant increase”. Besides, the “protection against 6-OHDA-induced damage” value in series [2] is listed as “can protect”. In series [3], the “protection against MPTP-induced damage” value was “can protect”.
On to `CCCN[C@H]1CCc2nc(N)sc2C1` [pramipexole, (S)-6-propylamino-4,5,6,7-tetrahydro-1,3-benzothiazole-2-amine], for which, in [4], the nausea was 76 % of patients and the vomiting was 39 % of patients. Besides, the “patients not able to complete the study” value in series [4] (presumably because of intolerable GI adverse events) was 36 % of patients. Also, the “toxic effects of rotenone on dopaminergic neurons” value in series [5] (mouse PD model) is on record as “inhibits the toxic effects of rotenone”. In series [5] (rotenone mouse PD model), the immunoreactivity for alpha-synuclein entry is given as “reducing immunoreactivity”. Moreover, the “synuclein oligomer formation in vitro” value in series [6] is given as “diminishes synuclein oligomer formation”. The aggregation of alpha-synuclein result in [7] is “inhibit the aggregation”. Also, the “in vitro oligomerization of human wild-type alpha-synuclein” value in series [8] is reported as “decreases the in vitro oligomerization”. For the same compound, the “neuroprotective (disease modifying) activity” value in series [9] is reported as “failed to evidence neuroprotective (i.e., disease modifying) activity”.
